Measurements reported in patent US10829458B2 (Araxes Pharma LLC, priority 2015, dated 2020).

Target: T1, KRAS G12C 1-169, his-tagged protein, GDP-loaded (Homo sapiens, UniProt P01116, G12C)
T1 construct: KRAS G12C 1-169, his-tagged protein, GDP-loaded
Assay: Biochemical assay: covalent modification of KRAS G12C measured by mass spectrometry (RapidFire/TOF or Q-Exactive)
Conditions: covalent binding to KRAS G12C
Procedure, shortened: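 Covalent adduct formation read by intact-mass spectrometry (TOF or Q Exactive Plus, charge envelopes deconvoluted into modified and unmodified species) after formic acid quench. Reactions contained 2 μM GDP-bound KRAS G12C 1-169 (his-tag) in Hepes/NaCl/MgCl2 buffer plus 10, 30 or 100 μM final compound, held 30 min, 2 h or 24 h at room temperature.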

Compound	Binding % (compounds of structure (I))	also measured
C=CC(=O)N1CCN(c2nc(OCCN3CC(F)(F)C3)nc3c(F)c(-c4c(O)cccc4F)c(Cl)cc23)CC1 [Example I-36, 1-(4-(6-chloro-2-(2-(3,3-difluoroazetidin-1-yl)ethoxy)-8-fluoro-7-(2-fluoro-6-hydroxyphenyl)quinazolin-4-yl)piperazin-1-yl) prop-2-en-1-one]	+++ (+++ indicates binding activity greater than 90%)	
C=CC(=O)N1CCC2(C1)CN(c1ncnc3c(F)c(-c4c(O)cccc4F)c(Cl)cc13)C2 [II-8, 1-(2-(6-chloro-8-fluoro-7-(2-fluoro-6-hydroxyphenyl)quinazolin-4-yl)-2,6-diazaspiro[3.4]octan-6-yl)prop-2-en-1-one]		Binding % (compounds of structure (II)): + (+ indicates binding activity up to 50%)
C=CC(=O)N1C[C@@H](C)N(c2ncnc3c(F)c(-c4c(O)cccc4F)c(Cl)cc23)[C@@H](C)C1 (atropisomer, axis not shown) [III-36]		Binding % (compounds of structure (III)): +++ (+++ indicates binding activity greater than 90%)
C=CC(=O)N1CCN(c2nc(OCCN3CCC3)nc3c(F)c(-c4c(O)cccc4F)c(Cl)cc23)CC1 [Example I-43, 1-(4-(2-(2-(azetidin-1-yl)ethoxy)-6-chloro-8-fluoro-7-(2-fluoro-6-hydroxyphenyl)quinazolin-4-yl)piperazin-1-yl) prop-2-en-1-one]	+++ (+++ indicates binding activity greater than 90%)	
C=CC(=O)N1CCN(c2nc(N3CC4(CN(C)C4)C3)nc3c(F)c(-c4c(C)ccc5[nH]ncc45)c(Cl)cc23)CC1 [Example I-157, 1-(4-(6-chloro-8-fluoro-7-(5-methyl-1H-indazol-4-yl)-2-(6-methyl-2,6-diazaspiro [3.3]heptan-2-yl)quinazolin-4-yl)piperazin-1-yl) prop-2-en-1-one]	+++ (+++ indicates binding activity greater than 90%)	
C=CC(=O)N1CC2(CCN(c3ncnc4c(F)c(-c5c(O)cccc5F)c(Cl)cc34)C2)C1 [II-4, 1-(6-(6-chloro-8-fluoro-7-(2-fluoro-6-hydroxyphenyl)quinazolin-4-yl)-2,6-diazaspiro[3.4]octan-2-yl)prop-2-en-1-one]		Binding % (compounds of structure (II)): + (+ indicates binding activity up to 50%)
C=CC(=O)N1CCN(c2nc(OCc3ncco3)nc3c(F)c(-c4c(O)cccc4F)c(Cl)cc23)CC1 [Example I-109, 1-(4-(6-chloro-8-fluoro-7-(2-fluoro-6-hydroxyphenyl)-2-(oxazol-2-ylmethoxy)quinazolin-4-yl)piperazin-1-yl) prop-2-en-1-one]	+++ (+++ indicates binding activity greater than 90%)	
C=CC(=O)N1CCN(c2nc(NC3CCN(C4CC4)CC3)nc3c(F)c(-c4c(O)cccc4F)c(Cl)cc23)CC1 (atropisomer, axis not shown) [Example I-78, (S)-1-(4-(6-chloro-2-(1-cyclopropyl-piperidin-4-ylamino)-8-fluoro-7-(2-fluoro-6-hydroxyphenyl)quinazolin-4-yl)piperazin-1-yl)prop-2-en-1-one]	+++ (+++ indicates binding activity greater than 90%)	
C=CC(=O)N1CCN(c2nc(CCN(C)C)nc3c(F)c(-c4c(C)ccc5[nH]ncc45)c(Cl)cc23)CC1 [Example I-34, 1-(4-(6-chloro-2-(2-(dimethyl-amino)ethyl)-8-fluoro-7-(5-methyl-1H-indazol-4-yl)quinazolin-4-yl)piperazin-1-yl)prop-2-en-1-one]	+++ (+++ indicates binding activity greater than 90%)	
C=CC(=O)N1CCN(c2nc(CCN3CC(C)(N(C)C)C3)nc3c(F)c(-c4c(O)cccc4F)c(Cl)cc23)CC1 [Example I-198, 1-(4-(6-chloro-2-(2-(3-(dimethyl-amino)-3-methyl-azetidin-1-yl)ethyl)-8-fluoro-7-(2-fluoro-6-hydroxyphenyl)quinazolin-4-yl)piperazin-1-yl) prop-2-en-1-one]	++ (++ indicates binding activity from 50 to 90%)	
